The subject of this assay is HIV-1 single-round infectious reporter virus. Kind of assay: Single-round infectious HIV-1 luciferase reporter virus infection of HeLa CD4 cells (antiviral EC50). The following applies: Human immunodeficiency virus 1, HeLa, read-out: EC50 Group from Table 3. Format: cell-based. Here is the method:
• Virus production—Human embryonic Kidney cell line, 293T, was propagated in Dulbecco's Modified Eagle Medium (Invitrogen, Carlsbad, Calif.) containing 10% fetal Bovine serum (FBS, Sigma, St. Louis, Mo.). • Virus infection—Human epithelial cell line, HeLa, expressing the HIV-1 receptor CD4 was propagated in Dulbecco's Modified Eagle Medium (Invitrogen, Carlsbad, Calif.) containing 10% fetal Bovine serum (FBS, Sigma, St. Louis, Mo.) and supplemented with 0.2 mg/mL Geneticin (Invitrogen, Carlsbad, Calif.). Virus-Single-round infectious reporter virus was produced by co-transfecting human embryonic Kidney 293 cells with an HIV-1 envelope DNA expression vector and a proviral cDNA containing an envelope deletion mutation and the luciferase reporter gene inserted in place of HIV-1 nef sequences (Chen et al, Ref. 41). Transfections were performed using lipofectAMINE PLUS reagent as described by the manufacturer (Invitrogen, Carlsbad, Calif.). Experiment • 1. HeLa CD4 cells were plated in 96 well plates at a cell density of 1×10^4 cells per well in 100 μl Dulbecco's Modified Eagle Medium containing 10% fetal Bovine serum and incubated overnight. • 2. Compound was added in a 2 μl dimethylsulfoxide solution, so that the final assay concentration would be ≦10 μM. • 3. 100 μl of single-round infectious reporter virus in Dulbecco's Modified Eagle Medium was then added to the plated cells and compound at an approximate multiplicity of infection (MOI) of 0.01, resulting in a final volume of 200 μl per well. • 4. Virally-infected cells were incubated at 37 degrees Celsius, in a CO2 incubator, and harvested 72 h after infection. • 5. Viral infection was monitored by measuring luciferase expression from viral DNA in the infected cells using a luciferase reporter gene assay kit, as described by the manufacturer (Roche Molecular Biochemicals, Indianapolis, Ind.). Infected cell supernatants were removed and 50 μl of lysis buffer was added per well. After 15 minutes, 50 μl of freshly-reconstituted luciferase assay reagent was added per well. Luciferase activity was then quantified by measuring luminescence using a Wallac microbeta scintillation counter. • 6. The percent inhibition for each compound was calculated by quantifying the level of luciferase expression in cells infected in the presence of each compound as a percentage of that observed for cells infected in the absence of compound and subtracting such a determined value from 100. • 7. An EC50 provides a method for comparing the antiviral potency of the compounds of this disclosure. The effective concentration for fifty percent inhibition (EC50) was calculated with the Microsoft Excel Xlfit curve fitting software. For each compound, curves were generated from percent inhibition calculated at 10 different concentrations by using a four parameter logistic model (model 205). Table 3 is the key for the data in Table 4. Results

The structures appear in SMILES notation.

Regarding `COc1cnc(-n2ccnn2)c2[nH]cc(C(=O)C(=O)N3CCN(c4nnnn4-c4ccccc4)CC3)c12` [A-1], the EC50 was less than 500 nM.

On to `O=C(C(=O)N1CCN(c2ccc(-c3ccccc3)cc2)CC1)c1c[nH]c2c(-n3ccnn3)ncc(F)c12` [A-2], for which the EC50 was greater than 500 nM.

Turning to `O=C(C(=O)N1CCN(c2cccc(-c3ccccc3)c2)CC1)c1c[nH]c2c(-n3ccnn3)ncc(F)c12` [A-3], the EC50 is less than 500 nM.

`O=C(C(=O)N1CCN(c2ccccc2-c2ccccc2)CC1)c1c[nH]c2c(-n3ccnn3)ncc(F)c12` [A-4]: the half-maximal effective concentration (EC50) is less than 500 nM.

In the case of `O=C(C(=O)N1CCN(c2nnnn2-c2ccccc2)CC1)c1c[nH]c2c(-n3ccnn3)ncc(F)c12` [A-5], the EC50 is less than 500 nM.

Turning to `O=C(C(=O)N1CCN(c2cc(O)nnc2-c2ccccc2)CC1)c1c[nH]c2c(-n3ccnn3)ncc(F)c12` [A-6], the EC50 was less than 500 nM.

Take `O=C(C(=O)N1CCN(c2nccc(-c3ccccc3)n2)CC1)c1c[nH]c2c(-n3ccnn3)ncc(F)c12` [A-7]: the EC50 is less than 500 nM.

Regarding `O=C(C(=O)N1CCN(c2nc(-c3ccccc3)cs2)CC1)c1c[nH]c2c(-n3ccnn3)ncc(F)c12` [A-8], the EC50 was less than 500 nM.

With `COc1cnc(-n2cnc(C)n2)c2[nH]cc(C(=O)C(=O)N3CCN(c4nnnn4-c4ccccc4)CC3)c12` [A-9], the EC50 is less than 500 nM.

In the case of `O=C(C(=O)N1CCN(c2nnnn2-c2ccccc2)CC1)c1c[nH]c2ncccc12` [A-10], the EC50 was less than 500 nM.

`COc1ccnc2[nH]cc(C(=O)C(=O)N3CCN(c4nnnn4-c4ccccc4)CC3)c12` [A-11]: the half-maximal effective concentration (EC50) was less than 500 nM.

Regarding `COc1ncc(OC)c2c(C(=O)C(=O)N3CCN(c4nnnn4-c4ccccc4)CC3)c[nH]c12` [A-12], the EC50 was less than 500 nM.

Regarding `O=C(C(=O)N1CCN(c2nsnc2-c2ccccc2)CC1)c1c[nH]c2c(-n3ccnn3)ncc(F)c12` [A-13], the EC50 was less than 500 nM.

Turning to `C[C@@H]1CN(c2nnnn2-c2ccccc2)CCN1C(=O)C(=O)c1c[nH]c2c(-n3ccnn3)ncc(F)c12` [A-14], the EC50 was less than 500 nM.

For the compound `C[C@H]1CN(c2nnnn2-c2ccccc2)CCN1C(=O)C(=O)c1c[nH]c2c(-n3ccnn3)ncc(F)c12` [A-15], the EC50 was less than 500 nM.

In the case of `O=C(C(=O)N1CCC(c2nc3ccccc3n2-c2ccccc2)CC1)c1c[nH]c2c(-n3ccnn3)ncc(F)c12` [A-16], the EC50 is less than 500 nM.

On to `O=C(C(=O)N1CCN(c2nccnc2-c2ccccc2)CC1)c1c[nH]c2c(-n3ccnn3)ncc(F)c12` [A-17], for which the EC50 is less than 500 nM.

As for `O=C(C(=O)N1CCN([C@H]2CCCC[C@H]2c2ccccc2)CC1)c1c[nH]c2c(-n3ccnn3)ncc(F)c12` [A-19], the EC50 is less than 500 nM.

In the case of `O=C(C(=O)N1CCN(c2nncn2-c2ccccc2)CC1)c1c[nH]c2c(-n3ccnn3)ncc(F)c12` [A-20], the concentration for a half-maximal effect (EC50) was less than 500 nM.

On to `O=C(C(=O)N1CCC(N2C(=O)CC2c2ccccc2)CC1)c1c[nH]c2c(-n3ccnn3)ncc(F)c12` (centres unmarked) [A-21], for which the EC50 is less than 500 nM.

Take `O=C(C(=O)N1CCN(c2nnc(O)n2-c2ccccc2)CC1)c1c[nH]c2c(-n3ccnn3)ncc(F)c12` [A-22]: the EC50 is less than 500 nM.

As to `O=C(C(=O)N1CCN(N2C(=O)CC2c2ccccc2)CC1)c1c[nH]c2c(-n3ccnn3)ncc(F)c12` (centres unmarked) [A-23], the EC50 was greater than 500 nM.

On to `O=C(C(=O)N1CCC(N2CCC2c2ccccc2)CC1)c1c[nH]c2c(-n3ccnn3)ncc(F)c12` (centres unmarked) [A-24], for which the EC50 was greater than 500 nM.

As for `COC(=O)c1ccc(F)c2c(C(=O)C(=O)N3CCN(c4nnnn4-c4ccccc4)CC3)c[nH]c12` [A-25], the EC50 is less than 500 nM.

As for `C[C@@H]1CN(c2nnnn2-c2ccccc2)[C@@H](C)CN1C(=O)C(=O)c1c[nH]c2c(-n3ccnn3)ncc(F)c12` [A-26], the half-maximal effective concentration (EC50) is less than 500 nM.

For the compound `O=C(C(=O)N1CCN(c2nnnn2-c2ccccc2)CC1)c1c[nH]c2cccc(F)c12` [A-27], the EC50 was less than 500 nM.

Consider `O=C(C(=O)N1CCN(c2nc(-c3ccccc3)ns2)CC1)c1c[nH]c2c(-n3ccnn3)ncc(F)c12` [A-28], for which the EC50 is less than 500 nM.

For `COc1cnc(-n2cnc(C)n2)c2[nH]cc(C(=O)C(=O)N3CCN(c4nnnn4-c4ccccc4)C[C@H]3C)c12` [A-30], the half-maximal effective concentration (EC50) was less than 500 nM.

Consider `COc1cnc(-n2cnc(C)n2)c2[nH]cc(C(=O)C(=O)N3CCN(c4nnnn4-c4ccccc4)C[C@@H]3C)c12` [A-31], for which the EC50 is less than 500 nM.

On to `COc1cnc(-n2cnc(C)n2)c2[nH]cc(C(=O)C(=O)N3C[C@H](C)N(c4nnnn4-c4ccccc4)C[C@H]3C)c12` [A-32], for which the EC50 was less than 500 nM.

For the compound `O=C(C(=O)N1CCC(c2nnc(-c3ccccc3)o2)CC1)c1c[nH]c2c(-n3ccnn3)ncc(F)c12` [A-33], the EC50 was greater than 500 nM.

With `O=C(C(=O)N1CCC(c2nc(-c3cccnc3)no2)CC1)c1c[nH]c2c(-n3ccnn3)ncc(F)c12` [A-34], the EC50 is greater than 500 nM.

With `Cc1cc(N2CCN(C(=O)C(=O)c3c[nH]c4c(-n5ccnn5)ncc(F)c34)CC2)nc(-c2ccccc2O)n1` [A-35], the EC50 was less than 500 nM.

Consider `O=C(C(=O)N1CCC(c2c(-c3ccccc3)[nH]c3ccccc23)CC1)c1c[nH]c2c(-n3ccnn3)ncc(F)c12` [A-36], for which the 50% effective concentration (EC50) was greater than 500 nM.

On to `O=C(C(=O)N1CCN(c2nc3ccccc3n2-c2ccccc2)CC1)c1c[nH]c2c(-n3ccnn3)ncc(F)c12` [A-37], for which the EC50 was less than 500 nM.

Turning to `COc1cnc(-n2cnc(C)n2)c2[nH]cc(C(=O)C(=O)N3CCN(c4nc5ccccc5n4-c4ccccc4)CC3)c12` [A-38], the EC50 is less than 500 nM.

In the case of `COc1cnc(-n2cnc(C)n2)c2[nH]cc(C(=O)C(=O)N3CCN(C4=NCCCN4c4ccccc4)CC3)c12` [A-39], the EC50 is greater than 500 nM.

As for `O=C(C(=O)N1CCN(C2=NCCCN2c2ccccc2)CC1)c1c[nH]c2c(-n3ccnn3)ncc(F)c12` [A-40], the EC50 was greater than 500 nM.

With `O=C(C(=O)N1CCN(c2cccc(C3CCCCC3)c2)CC1)c1c[nH]c2c(-n3ccnn3)ncc(F)c12` [A-41], the EC50 was greater than 500 nM.

In the case of `O=C(C(=O)N1CCN(c2ccccc2C2CCCCC2)CC1)c1c[nH]c2c(-n3ccnn3)ncc(F)c12` [A-42], the EC50 is greater than 500 nM.

Take `O=C(C(=O)N1CCN(c2nncn2-c2ccccc2)CC1)c1c[nH]c2c(-n3ccnn3)ncc(O)c12` [A-43]: the EC50 was less than 500 nM.

Consider `COc1cnc(-n2cnc(C)n2)c2[nH]cc(C(=O)C(=O)N3CCN(c4nncn4-c4ccccc4)CC3)c12` [A-44], for which the EC50 was less than 500 nM.

For the compound `C[C@@H]1CN(C(=O)C(=O)c2c[nH]c3c(-n4ccnn4)ncc(F)c23)CCN1c1nnnn1-c1ccccc1` [A-45], the EC50 is less than 500 nM.

Take `COc1cnc(-n2cnc(C)n2)c2[nH]cc(C(=O)C(=O)N3CCN(c4nnnn4-c4ccccc4)[C@H](C)C3)c12` [A-46]: the EC50 is less than 500 nM.

Turning to `Cc1nnc(N2CCN(C(=O)C(=O)c3c[nH]c4c(-n5ccnn5)ncc(F)c34)CC2)n1-c1ccccc1` [A-47], the EC50 was less than 500 nM.

Consider `Cc1cc(N2CCN(C(=O)C(=O)c3c[nH]c4c(-n5ccnn5)ncc(F)c34)CC2)n(-c2ccccc2)n1` [A-48], for which the EC50 was less than 500 nM.

As to `O=C(C(=O)N1CCN(c2nccn2-c2ccccc2)CC1)c1c[nH]c2c(-n3ccnn3)ncc(F)c12` [A-49], the EC50 was less than 500 nM.

Regarding `CCOc1ccccc1N1CCN(C(=O)C(=O)c2c[nH]c3c(-n4ccnn4)ncc(F)c23)CC1` [A-50], the EC50 was less than 500 nM.

Turning to `O=C(C(=O)N1CCN(c2ncccc2C(F)(F)F)CC1)c1c[nH]c2c(-n3ccnn3)ncc(F)c12` [A-51], the EC50 was less than 500 nM.

On to `O=C(C(=O)N1CCN(c2ccccc2C(F)(F)F)CC1)c1c[nH]c2c(-n3ccnn3)ncc(F)c12` [A-52], for which the EC50 was greater than 500 nM.

As to `COc1cnc(Br)c2[nH]cc(C(=O)C(=O)N3CCN(c4nncn4-c4ccccc4)CC3)c12` [A-53], the EC50 was less than 500 nM.

Regarding `COc1cnc(-n2cnc(C)n2)c2[nH]cc(C(=O)C(=O)N3CCN(c4nccn4-c4ccccc4)CC3)c12` [A-54], the EC50 was less than 500 nM.

Consider `O=C(C(=O)N1CCN(C2=NS(=O)(=O)N=C2c2ccccc2)CC1)c1c[nH]c2c(-n3ccnn3)ncc(F)c12` [A-55], for which the concentration for a half-maximal effect (EC50) is less than 500 nM.

For the compound `C[C@@H]1CN(C(=O)C(=O)c2c[nH]c3c(Cl)ncc(O)c23)CCN1c1nnnn1-c1ccccc1` [A-56], the EC50 is greater than 500 nM.

For the compound `COc1cnc(-c2cnccn2)c2[nH]cc(C(=O)C(=O)N3CCN(c4nncn4-c4ccccc4)CC3)c12` [A-57], the concentration for a half-maximal effect (EC50) was less than 500 nM.

On to `COc1cnc(-n2ccnn2)c2[nH]cc(C(=O)C(=O)N3C(C)CN(c4nnnn4-c4ccccc4)CC3C)c12` (centres unmarked) [A-58], for which the EC50 is less than 500 nM.

The record behind these values is patent US7807676B2, “Diketo-Piperazine and Piperidine derivatives as antiviral agents” (priority 2006, dated 2010).
